Source: PMC13489962, “Small-molecule modulation of β-arrestins” (Nature, 2026)

How the values were obtained:
[1] = test system: βARR2 recruitment to β2V2R; experiment: PathHunter βARR2 recruitment to β2V2R in U2OS cells; format: cell-based; details: 50 μM (recruitment), 25 μM (internalization); n = 1–2; Reviewer Fig. R2
Procedure: β-Arrestin recruitment to the agonist-activated receptor (β2V2R) was measured using the DiscoveRx PathHunter β-arrestin assay, which uses enzyme fragment complementation. […] Upon agonist-induced recruitment of βARR2 to β2V2R, the β-gal fragments complement to form a functional enzyme, generating a measurable chemiluminescent signal. The signal intensity correlates directly with the extent of βARR2 recruitment. U2OS cells co-expressing β2V2R and βARR2 were plated at a density of 25,000 cells per well in white, clear-bottom 96-well plates 24 h before treatment. On the day of the experiment, cells were treated with either a single dose (50 μM) or varying concentrations of a specific β-arrestin modulator or vehicle control in Hanks’ balanced salt solution (HBSS) (Sigma-Aldrich) with 20 mM HEPES (pH 7.4) and 0.05% BSA. Cells were incubated at 37 °C, 5% CO2, and about 100% relative humidity for about 30 min, followed by stimulation with either 10 nM Iso or a serial dilution of Iso for 60 min at 37 °C. After agonist stimulation, PathHunter reagents were added, and cells were incubated for another 60 min at ambient temperature. Luminescence signals were measured using a CLARIOstar microplate reader (BMG Labtech).

M2R–Gi = experiment: TRUPATH BRET2 Gα–Gβγ dissociation, M2R–Gi; format: cell-based, human; details: 50 μM, 15 min; ACh; βarr1/2 KO cells
Procedure: TRUPATH assays[73] were performed in HEK293 βARR1/2-knockout cells transiently transfected using FuGENE4K with a total of 4 μg per 15 cm dish plasmid DNA, including pcDNA3.1 constructs encoding human GPCRs (β2AR, AT1R, M2R or NTSR1), Gα–RLuc8, Gβ3 and Gγ9–GFP2 at a 1:1:1:1 ratio. TRUPATH components were obtained from B. Roth via Addgene (1000000163). Twenty-four hours after transfection, cells were replated into poly-D-lysine-coated 96-well white, clear-bottom plates at 20,000–30,000 cells per well in phenol red-free DMEM supplemented with 2% FBS. BRET signals were acquired 48 h after transfection. On the day of the assay, cells were washed and incubated in HBSS containing 20 mM HEPES (pH 7.4). Modulators were applied at 50 μM for 15 min, followed by addition of Prolume Purple substrate (Nanolight Technologies). Cells were then stimulated with increasing concentrations of agonist (angiotensin II, neurotensin, isoproterenol or acetylcholine). BRET2 was recorded in kinetic mode for 30 min using a CLARIOstar Plus plate reader (480 nm/510 nm), and peak signals were used for quantification. ΔNet BRET ratios were calculated by subtracting the BRET ratio of the vehicle-treated control from each condition, agonist alone or agonist plus modulator. […]

D2R–Gi = experiment: TRUPATH BRET2 Gα–Gβγ dissociation, D2R–Gi; format: cell-based; details: 50 μM; quinpirole; βarr1/2 KO cells

**Q.** For C=C1C(=O)[C@]23[C@H](O)[C@H]1CC[C@H]2[C@@]12CO[C@]3(O)[C@@H](O)[C@@H]1C(C)(C)CC[C@@H]2O [Cmpd-5, (1S,4aR,5S,6S,6aR,9S,11aS,11bS,14R)-1,5,6,14-tetrahydroxy−4,4-dimethyl-8-methylenedecahydro-1H-6,11b-(epoxymethano)-6a,9-methanocyclohepta[a]naphthalen-7(8H)-one], which “inhibition across a full Iso dose range, βarr2 recruitment and receptor internalization” value [1] is on record?
**A.** robust

**Q.** For C=C1C(=O)C2=CC1CCC(=O)C1(C)CCC(OCC)C(C)(C)C1CC2O (centres unmarked) [Cmpd-46, (Z)-3-ethoxy-6-hydroxy-4,4,13a-trimethyl-9-methylene-1,2,3,4,4a,5,6,9,10,11,12,13a-dodecahydro-7,10-(metheno)benzo[11]annulene-8,13-dione], which “mean fractional decrease vs DMSO in maximal Gα–Gβγ dissociation, M2R” value (M2R–Gi) is on record?
**A.** −0.32

**Q.** What about the “mean fractional decrease vs DMSO in maximal Gα–Gβγ dissociation, D2R” value (D2R–Gi) of the same molecule?
**A.** −0.18

**Q.** Which “mean fractional decrease vs DMSO in maximal Gα–Gβγ dissociation, M2R” value (M2R–Gi) does the source give for C=C1C(=O)OC2CC3(C)OC3CCC(C)=CC(OC(C)=O)C12 (centres unmarked) [Cmpd-64, (Z)-4,10a-dimethyl-7-methylene-8-oxo-1a,2,3,6,6a,7,8,9a,10,10a decahydrooxireno[2’,3’:8,9]cyclodeca[1,2-b]furan-6-yl acetate] here?
**A.** −0.38

**Q.** And the “mean fractional decrease vs DMSO in maximal Gα–Gβγ dissociation, D2R” value (D2R–Gi)?
**A.** −0.27
